Where “and” joins values, the source holds several entries; their conditions need not be identical. Identical values can stand only once.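 Protocol summary: plate cells (96-well), add compound at 5 concentrations, incubate 48 h, interpolate endpoints linearly. At the GI50, growth is halved. TGI: total growth inhibition.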

Holding throughout (assay): NCI-60 cell line screen, 48 h
In assay [1] the test system is NCI-H460 lung.
For assay [2], the system named is COLO 205 colon.
The test system of assay [3] is SNB-75 CNS.
Assay [4] deals with OVCAR-4 ovarian.
In assay [5] the test system is OVCAR-8 ovarian.
Assay [6] relates to NCI-H522 lung.
Assay [7] has as its system SR leukemia.
Assay [8] relates to SF-539 CNS.
Assay [9] concerns SW-620 colon.
Assay [10] concerns SK-MEL-5 melanoma.

For `O=C(O)c1nc(NCc2nc3cc(Cl)ccc3o2)n[nH]1`, the GI50 in [1], in [2], in [3], in [4], in [5] and in [6] was over 100 µM each time. Besides, the GI50 in [7], in [8], in assay [9] and in [10] was over 100 µM throughout. Further, the TGI in assay [1], in [2], in assay [3], in assay [4], in assay [5] and in assay [6] was over 100 µM throughout. Further, the TGI in assay [7], in [8], in assay [9] and in assay [10] was over 100 µM throughout.
Turning to `CCOc1ccccc1CCN=C1NC(=O)/C(=C/c2ccc3ncccc3c2)S1`, the GI50 in assay [1] was 0.879 µM; in assay [2] it was 0.735 µM; in assay [3] it was 0.536 µM; in assay [4], 1.36 µM; in [5], 3.08 µM; in [6], 0.676 µM. The GI50 in assay [7] was 0.146 µM; in assay [8], 0.751 µM; in [9], 0.712 µM; in assay [10] it was 2.05 µM. Also, the TGI is over 25 µM in assay [1]; 3.07 µM in [2]; 7.79 µM in assay [3]; over 22.9 µM in [4]; over 25 µM in [5]; 3.49 µM in [6]. Further, the TGI worked out at 3.04 µM in assay [7], 2.95 µM in assay [8], 5.28 µM in assay [9] and 15.2 µM in assay [10].
Turning to `O=C1C=CC(=O)c2c1ccc1c3ccccc3n(Cc3ccc([N+](=O)[O-])cc3)c21`, the TGI in assay [1] was over 100 µM; in assay [2] it was over 100 µM; in assay [3], over 100 µM; in assay [4] it was over 100 µM; in [5], over 100 µM; in assay [6], 55.4 µM. Further, the TGI in assay [7] is 37.3 µM; in assay [8], over 100 µM; in assay [9], over 100 µM; in assay [10] it was over 100 µM.
On to `CC(=O)Nc1ccc(-c2cc(C(=O)O)c3cc4ccccc4cc3n2)cc1`, for which the TGI in [1], in assay [2], in assay [3], in assay [4], in assay [5] and in [6] was over 100 µM throughout. Besides, the TGI in assay [7], in assay [8], in [9] and in [10] was over 100 µM each time.
For the compound `CC1CC(C)CC(C)C(O)/C(C#N)=C/C=C/CC(C2CCCC2C(=O)O)OC(=O)CC(O)C(C)C1` (stereo not given), the GI50 is 0.0518 µM in assay [1]; 0.0565 µM in assay [2]; 0.0267 µM in assay [3]; 0.126 µM in assay [4]; 0.0495 µM in assay [5]; 0.00266 µM in [6]. Besides, the GI50 in assay [7] was 0.0176 µM; in [8], 0.0051 µM; in assay [9], 0.0834 µM; in [10], 0.0282 µM and 0.0232 µM. Besides, the TGI in [1] was 0.371 µM; in [2] it was 0.27 µM and 0.412 µM; in [3], 0.0853 µM and 0.11 µM; in assay [4] it was 0.51 µM and 1.89 µM; in assay [5], 0.472 µM and 0.344 µM; in assay [6] it was 0.0137 µM and < 0.0119 µM. Also, the TGI is 0.0736 µM and 0.0813 µM in assay [7]; 0.0213 µM and 0.0146 µM in [8]; 0.725 µM and 1.34 µM in assay [9]; 0.122 µM and 0.0932 µM in assay [10].
For `O=S(=O)(Nc1ccc(Br)cc1)c1ccc(-c2cnc(C3CC3)o2)cc1`, the GI50 is 2.2 µM in assay [1]; 2.53 µM in assay [2]; 0.518 µM in assay [3]; 3.8 µM in [4]; 4.16 µM in assay [5]; 0.855 µM in assay [6]. In addition, the GI50 in assay [7] was 0.349 µM; in assay [8], 1.86 µM; in assay [9] it was 0.785 µM; in assay [10], 2.49 µM. The TGI amounted to 10.2 µM in [1]; 12.1 µM in assay [2]; 3.35 µM in assay [3]; 18 µM in [4]; 20.4 µM in assay [5]; 12.9 µM in assay [6]. For the same compound, the TGI in [7] worked out at 16.5 µM; in assay [8], 5.91 µM; in [9], 12.3 µM; in assay [10] it was 11.6 µM.
On to `FC(F)(F)c1cccc(-c2nc3nc(Cl)c(Cl)nc3[nH]2)c1`, for which the TGI is over 30.3 µM in [1]; 2.98 µM in assay [2]; 7.06 µM in assay [3]; over 41.6 µM in assay [4]; over 100 µM in assay [5]; 4.11 µM in assay [6]. The TGI is 12.2 µM in assay [7], over 27.7 µM in assay [8], over 42.3 µM in assay [9] and 3.16 µM in assay [10].
For `Cc1ccc2cnc(N)c(C#Cc3cc(C(=O)Nc4ccc(CN5CCN(C)CC5)c(C(F)(F)F)c4)cnc3C)c2c1`, the GI50 was 0.604 µM in [1]; 0.296 µM in assay [2]; 0.756 µM in [3]; 0.436 µM in assay [4]; 1.11 µM in assay [5]; 0.588 µM in assay [6]. Besides, the GI50 in assay [7] is 0.39 µM; in [8], 0.664 µM; in assay [9], 0.344 µM; in assay [10], 1.08 µM. Further, the TGI amounted to 1.34 µM in assay [1]; 1.16 µM in assay [2]; 1.61 µM in assay [3]; 8.36 µM in assay [4]; 3.85 µM in [5]; 1.36 µM in assay [6]. Moreover, the TGI came out at 1.61 µM in assay [7], 1.32 µM in assay [8], 1.07 µM in assay [9] and 2.49 µM in [10].
`C=C1CCC2C3(C)COC(C)(C)OC3CCC2(C)C1C/C=C1/C(=O)OCC1OC(C)=O` (stereo not given): the GI50 in assay [1] was 5.24 µM; in assay [2] it was 1.72 µM; in assay [3], 5.23 µM; in [4], 2.6 µM; in assay [5], 2.18 µM; in assay [6], 0.476 µM. For the same compound, the GI50 in assay [7] is 2.37 µM; in [8] it was 1.72 µM; in [9] it was 1.27 µM; in [10] it was 4.8 µM. Besides, the TGI in [1] worked out at 17.7 µM; in assay [2] it was 3.43 µM; in assay [3], 16.5 µM; in [4], 10.1 µM; in [5], 6.8 µM; in assay [6], 2 µM. Moreover, the TGI in [7] came out at 9.03 µM; in [8], 3.3 µM; in assay [9], 2.74 µM; in [10] it was 16.4 µM.
With `Cc1c2cnccc2c(C)c2c1c1cc(C#N)ccc1n2C`, the GI50 in [1] is 0.124 µM; in assay [2], 0.18 µM; in assay [3] it was 0.179 µM; in assay [4] it was 0.245 µM; in [5] it was 0.103 µM; in [6], 0.167 µM. Further, the GI50 in assay [7] was 0.0588 µM; in assay [8] it was 0.254 µM; in assay [9] it was 0.0695 µM; in [10] it was 0.224 µM. Also, the TGI in [1] worked out at 0.427 µM; in [2], 1.08 µM; in assay [3], 0.966 µM; in [4], 0.988 µM; in [5] it was 1.96 µM; in [6], 0.817 µM. Besides, the TGI is 3.06 µM in assay [7], 1.14 µM in assay [8], 1.17 µM in assay [9] and 0.591 µM in [10].
Turning to `COc1cc(C)ccc1C(=O)c1ccc(C)cc1OC`, the GI50 in assay [1] is 3.39 µM; in assay [2], 2.55 µM; in [3], 3.25 µM; in assay [4] it was 45.1 µM; in [5], 4.89 µM; in assay [6] it was 1.76 µM. Moreover, the GI50 was 0.567 µM in assay [7], 2.66 µM in assay [8], 1.41 µM in assay [9] and 2.99 µM in [10]. Moreover, the TGI in [1] was over 100 µM; in assay [2] it was 9.34 µM; in assay [3], over 100 µM; in [4], over 100 µM; in assay [5] it was over 100 µM; in assay [6], 4.96 µM. For the same compound, the TGI in [7] was over 100 µM; in [8], 20.6 µM; in assay [9] it was over 100 µM; in assay [10] it was 24.6 µM.
Take `CCOC(=O)NC(=O)c1cn(CCN2CCN(C(=O)NCCCCCCNC(=O)N3CCN(CCn4cc(C(=O)NC(=O)OCC)c(=O)[nH]c4=O)CC3)CC2)c(=O)[nH]c1=O`: the TGI in [1], in [2], in [3], in assay [4], in assay [5] and in assay [6] was over 100 µM throughout. For the same compound, the TGI in [7], in assay [8], in [9] and in [10] was over 100 µM each time.
Consider `C=C(c1ccccc1)C1(O)CCCCC1N` (stereo not given), for which the TGI in assay [1], in assay [2], in [3], in [4], in [5] and in assay [6] was over 100 µM each time. The TGI is 72.8 µM in assay [7], over 100 µM in assay [8], over 100 µM in [9] and over 100 µM in assay [10].
Regarding `COc1cc2c(c3c1c(=O)c1ccccc1n3C)C=CC1(CCCC1)O2`, the TGI turned out to be 24.6 µM in assay [1]; 27.6 µM in assay [2]; 24.8 µM in [3]; 25.8 µM in [4]; 57.8 µM in [5]; 33.5 µM in assay [6]. The TGI in assay [7] amounted to 52.8 µM; in assay [8], 17.3 µM; in assay [9], 37.2 µM; in assay [10], 25.6 µM.
For `C/C(=N/O)c1cccc(Nc2cc(-n3nnc4ccccc43)nc3ccccc23)c1`, the GI50 is 14.7 µM in assay [1]; 32.4 µM in [2]; 35.6 µM in assay [3]; 18.8 µM in assay [4]; 13.5 µM in [5]; 19.4 µM in [6]. The GI50 was 15 µM in assay [7], 1.62 µM in [8], 21.5 µM in assay [9] and 3.78 µM in assay [10]. For the same compound, the TGI in assay [1] is 46.7 µM; in [2], over 73 µM; in assay [3], over 100 µM; in [4], over 100 µM; in assay [5], 51.8 µM; in [6], over 57.5 µM. In addition, the TGI stood at 35.2 µM in assay [7], 5.88 µM in assay [8], 57 µM in assay [9] and 13.7 µM in assay [10].
Consider `Nc1ncn([C@@H]2S[C@H](CO)[C@@H](O)[C@@H]2F)c(=O)n1`, for which the GI50 in assay [1] is 0.442 µM; in [2], 3.57 µM; in assay [3], 43.4 µM; in assay [4], over 100 µM; in [5], 0.409 µM; in assay [6], over 100 µM. Moreover, the GI50 in assay [7] is 0.648 µM; in assay [8], 9.8 µM; in [9], 1.38 µM; in [10], 0.827 µM. The TGI in assay [1], in [2], in [3], in [4], in assay [5] and in [6] was over 100 µM in each case. Also, the TGI was over 100 µM in [7], over 77.9 µM in assay [8], over 100 µM in assay [9] and over 100 µM in assay [10].
On to `N#CC(N)=Nc1ccccc1`, for which the TGI in assay [1], in assay [2], in assay [3], in [4], in assay [5] and in assay [6] was over 100 µM in each case. The TGI in assay [7], in assay [8], in assay [9] and in assay [10] was over 100 µM in each case.
For the compound `CC1=C([Se]CC(OC(=O)CC[Se]c2ccccc2)C(=O)NC(C)(C)C)C(=O)c2ccccc2C1=O` (stereo not given), the GI50 was 0.426 µM in assay [1]; 1.6 µM in [2]; 1.47 µM in [3]; 1.61 µM in [4]; 1.77 µM in [5]; 1.67 µM in assay [6]. Moreover, the GI50 was 0.938 µM in assay [7], 1.75 µM in [8], 1.91 µM in assay [9] and 1.82 µM in [10]. For the same compound, the TGI was 2.02 µM in [1]; 3.13 µM in [2]; 2.82 µM in assay [3]; 3 µM in [4]; 3.27 µM in [5]; 3.34 µM in assay [6]. Moreover, the TGI came out at 3.37 µM in assay [7], 3.15 µM in assay [8], 3.88 µM in assay [9] and 3.27 µM in assay [10].

(Values after PubChem BioAssay (NCI).)
